In the supplement of paper PMC9663587:

What was measured:
LEE011/Ribociclib = compound: CN(C)C(=O)c1cc2cnc(Nc3ccc(N4CCNCC4)cn3)nc2n1C1CCCC1 [LEE011/Ribociclib]; assay: increase in dead-cell fraction, 72 h; higher = more death;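 also: breast cancer cell lines in 384-well plates, stained with Hoechst plus LIVE/DEAD far red dye and imaged, cells above an LDR intensity threshold counted dead, Hoechst-negative corpses included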
THZ531 = compound: CN(C)C/C=C/C(=O)Nc1ccc(C(=O)N2CCC[C@@H](Nc3ncc(Cl)c(-c4c[nH]c5ccccc45)n3)C2)cc1 [THZ531]; assay: as above
THZ1 [1] = compound: T1, CN(C)C/C=C/C(=O)Nc1ccc(C(=O)Nc2cccc(Nc3ncc(Cl)c(-c4c[nH]c5ccccc45)n3)c2)cc1 [THZ1]; assay: as above
Flavopiridol = compound: CN1CC[C@H](c2c(O)cc(O)c3c(=O)cc(-c4ccccc4Cl)oc23)[C@H](O)C1 [Flavopiridol]; assay: as above
Neratinib/HKI272 = compound: CCOc1cc2ncc(C#N)c(Nc3ccc(OCc4ccccn4)c(Cl)c3)c2cc1NC(=O)/C=C/CN(C)C [Neratinib/HKI272]; assay: GR value, 72 h; higher = faster growth (1 = untreated, <0 = killing);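 also: breast cancer and non-malignant breast epithelial lines, nine half-log doses, viable cells counted by Hoechst and LIVE/DEAD dye imaging versus time-zero plates and DMSO controls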
THZ1 [2] = compound: T1, THZ1; assay: as above

PDX1258
increase in dead-cell fraction (LEE011/Ribociclib; 0.001 µM): -0.0077
increase in dead-cell fraction (LEE011/Ribociclib; 0.003162 µM): 0.003
increase in dead-cell fraction (LEE011/Ribociclib; 0.01 µM): -0.0078
increase in dead-cell fraction (LEE011/Ribociclib; 0.03162 µM): -0.0297
increase in dead-cell fraction (LEE011/Ribociclib; 0.1 µM): -0.0249
increase in dead-cell fraction (LEE011/Ribociclib; 0.3162 µM): 0.0184
increase in dead-cell fraction (LEE011/Ribociclib; 1 µM): -0.0032
increase in dead-cell fraction (LEE011/Ribociclib; 3.162 µM): 0.0025
increase in dead-cell fraction (LEE011/Ribociclib; 10 µM): 0.0066
increase in dead-cell fraction (THZ531; 0.0001 µM): 0.0134
increase in dead-cell fraction (THZ531; 0.0003162 µM): -0.0091
increase in dead-cell fraction (THZ531; 0.001 µM): -0.0052
increase in dead-cell fraction (THZ531; 0.003162 µM): -0.0071
increase in dead-cell fraction (THZ531; 0.01 µM): -0.0127
increase in dead-cell fraction (THZ531; 0.03162 µM): 0.0327
increase in dead-cell fraction (THZ531; 0.1 µM): 0.239
increase in dead-cell fraction (THZ531; 0.3162 µM): 0.246
increase in dead-cell fraction (THZ531; 1 µM): 0.27
increase in dead-cell fraction (THZ1 [1]; 0.0001 µM): -0.0269
increase in dead-cell fraction (THZ1 [1]; 0.0003162 µM): 0.0089
increase in dead-cell fraction (THZ1 [1]; 0.001 µM): -0.01
increase in dead-cell fraction (THZ1 [1]; 0.003162 µM): -0.0015
increase in dead-cell fraction (THZ1 [1]; 0.01 µM): 0.0153
increase in dead-cell fraction (THZ1 [1]; 0.03162 µM): 0.188
increase in dead-cell fraction (THZ1 [1]; 0.1 µM): 0.237
increase in dead-cell fraction (THZ1 [1]; 0.3162 µM): 0.304
increase in dead-cell fraction (THZ1 [1]; 1 µM): 0.398
increase in dead-cell fraction (Flavopiridol; 0.0001 µM): 0.0131
increase in dead-cell fraction (Flavopiridol; 0.0003162 µM): -0.0092
increase in dead-cell fraction (Flavopiridol; 0.001 µM): -0.0132
increase in dead-cell fraction (Flavopiridol; 0.003162 µM): -0.0012
increase in dead-cell fraction (Flavopiridol; 0.01 µM): 0.0042
increase in dead-cell fraction (Flavopiridol; 0.03162 µM): -0.0156
increase in dead-cell fraction (Flavopiridol; 0.1 µM): 0.0246
increase in dead-cell fraction (Flavopiridol; 0.3162 µM): 0.0926
increase in dead-cell fraction (Flavopiridol; 1 µM): 0.288
GR value (Neratinib/HKI272; 0.0003162 µM): 1.07 GR
GR value (Neratinib/HKI272; 0.001 µM): 1.02 GR
GR value (Neratinib/HKI272; 0.003162 µM): 1.1 GR
GR value (Neratinib/HKI272; 0.01 µM): 1 GR
GR value (Neratinib/HKI272; 0.03162 µM): 0.938 GR
GR value (Neratinib/HKI272; 0.1 µM): 0.772 GR
GR value (Neratinib/HKI272; 0.3162 µM): 0.749 GR
GR value (Neratinib/HKI272; 1 µM): 0.548 GR
GR value (Neratinib/HKI272; 3.162 µM): 0.195 GR
GR value (THZ1 [2]; 0.0001 µM): 1.11 GR
GR value (THZ1 [2]; 0.0003162 µM): 1.16 GR
GR value (THZ1 [2]; 0.001 µM): 1.17 GR
GR value (THZ1 [2]; 0.003162 µM): 0.923 GR
GR value (THZ1 [2]; 0.01 µM): 0.918 GR
GR value (THZ1 [2]; 0.03162 µM): -0.295 GR
GR value (THZ1 [2]; 0.1 µM): -0.51 GR
GR value (THZ1 [2]; 0.3162 µM): -0.509 GR
GR value (THZ1 [2]; 1 µM): -0.665 GR
